Patent US7994127B2, “Treatment of rett syndrome” (Massachusetts Institute of Technology, priority 2007, dated 2011)

B1: BDNF: brain derived neurotrophic factor (protein, UniProt P23560 19-247, looked up)
Neurotrophic factor BDNF …: APMKEANIRGQGGLAYPGVRTHGTLESVNGPKAGSRGLTSLADTFEHVIEELLDEDQKVRPNEENNKDADLYTSRVMLSSQVPLEPPLLFLLEEYKNYLDAANMSMRVRRHSDPARRGELSVCDSISEWVTAADKKTAVDMSGGTVTVLEKVPVSKGQLKQYFYETKCNPMGYTKEGCRGIDKRHWNSQCRTTQSYVRALTMDSKKRIGWRFIRIDTSCVCTLTIKRGR

Legend:
[1] = tested on: visual cortex of adult MeCP2+/− mice; assay: Ocular dominance plasticity after monocular deprivation, optical imaging of intrinsic signals; type: in vivo, mouse; conditions: 180 μg/kg/day i.p. starting at 2 weeks; P60 MeCP2 KO mice
synaptic transmission = assay: Synaptic transmission during direct application of the molecules; type: cell-based, mouse; conditions: direct application of the molecule
Excerpt: rhIGF1 produced a similar improvement as (1-3)IGF-1 in all maturational signatures measured, including (A) synaptic transmission levels, and (B) circuit stability (by preventing ocular dominance plasticity) in P60 MeCP2 KO mice.
The above data focused on the (1-3)IGF-1 fragment of IGF1 to promote IGF1 signaling. We also have tested the effect of the full-length IGF1 peptide already approved for pediatric administration in human patients (for short stature indications). We have verified a correspondence in the effects of (1-3)IGF-1 and recombinant human IGF1 (rhIGF1).

[2] = in vivo; cited from earlier work
rat hippocampal cultures = conditions: Ramsey et al., 2005; Xing et al., 2007; cited from earlier work

| Molecule | maturation of cortical circuitry during ocular dominance plasticity (FIG. 9B) [1] | synaptic activity / synaptic transmission levels (FIG. 9A) (synaptic transmission) | crossing the blood-brain barrier [2] | excitatory postsynaptic currents (rat hippocampal cultures) |
| --- | --- | --- | --- | --- |
| rhIGF1: full-length IGF1 peptide already approved for pediatric administration in human patients; recombinant human IGF1 | promoted to similar degrees | striking enhancements of synaptic activity | capable of crossing the blood-brain barrier | elevate excitatory postsynaptic currents significantly |
| B1 |  |  | poor efficiency at crossing the blood brain barrier |  |
